According to patent US7452505B2, “Method for analyzing blood test sample and dry analytical element and analytical kit utilizing the method” (Fujifilm Corporation, priority 2002, dated 2008):

Each molecule was assayed on blood platelet-rich plasma (assay: Evaluation of LDH activity of blood platelet-rich plasma samples with surfactant (JSCC transferable method)). Details: sample with 0.6% of surfactant, sample without surfactant taken as 100; 37° C.
Assay type: cell-based, human
Text: (2) Evaluation of LDH Activity
In Table 2, “LDH activity” means the activity of the test sample with 0.6% of surfactant, assuming that that of the test sample without surfactant to be 100.

Molecule | LDH Activity
C[C@H](CCC(=O)O)[C@H]1CC[C@H]2[C@@H]3CC[C@@H]4C[C@H](O)CC[C@]4(C)[C@H]3C[C@H](O)[C@]12C [deoxycholic acid, reference compound] | 199
POE (5) oleylether [EMALEX 505] | 295
POE (6) perfluoroalkyl ethoxylate [Example F-1405] | 102
POE (10) octylether [Nissan Nonion] | 694
POE (10) perfluoroalkyl [Example F-142D] | 104
POE (12) oleylether [EMALEX 512] | 307
POE (20) oleylether [EMALEX 520] | 297
sodium α-olefin sufonate [NIKKOL OS-14] | 212
